Laboratory results as given in patent US9498451B2, “Method for treating or preventing radiation damage” (Beijing Institute of Transfusion Medicine, Academy of …, priority 2013, dated 2016).
Entries after “also recorded” stand apart in the source; their conditions may differ.

Experiments:
[1] = system: mice radiated by 60Co γ-ray with a sub-lethal dosage; test: Contents of WBC, RBC and PLT in peripheral blood of mice radiated by 60Co γ-ray with a sub-lethal dosage (6.5 Gy); format: in vivo, mouse (male C57); conditions: 2.5 mg/kg every three days for 5 times, vs PBS group
Experimental: 10 male C57 mice were subjected to whole body irradiation by ^60Co γ ray with a dosage rate of 1.56 Gy/min and an irradiation dosage of 6.5 Gy. The radiated mice were divided into 2 groups randomly, a PBS group having 5 mice and a TA01 group having 5 mice. Every mouse in the TA01 group was injected with 2.5 mg/kg (body weight) TA01 every three days for 5 times, and the solvent of the injection was a PBS solution. Every mouse in the PBS group was treated with the same process as the TA01 group, with the exception that the injection amount of TA01 was 0, in other words, only the PBS solution was injected. After different days for treating, each group of the mice was subjected to a cutting-tail process to collect 20 μL blood which was subsequently added with 2 mL blood cell dilution (commercially available from Jinan Bolai Biotechnology Co., Ltd).
FIG. 3 is diagrams showing contents of WBC, RBC and PLT in peripheral blood of mice radiated by ^60Co γ-ray with a sub-lethal dosage and injected subcutaneously with TA01 or PBS (control) at different time points.

[2] = system: mice radiated by 60Co γ-ray with a lethal dosage; test: Survival rate of mice radiated by 60Co γ ray with a lethal dosage (8.0 Gy) and injected with TA01; format: in vivo, mouse (male C57BL/6); conditions: 8.0 Gy 60Co whole body irradiation, vs control group
Experimental: 50 male C57BL/6 mice were subjected to whole body irradiation by ^60Co ray with a dosage rate of 1.56 Gy/min and an irradiation dosage of 8.0 Gy. The radiated mice were divided into 5 groups randomly, each group having 10 mice. The 5 groups were injected with TA01 with dosages of 0 mg/kg (control group), 1.25 mg/kg, 2.5 mg/kg, 5 mg/kg and 10 mg/kg, respectively. The injection was performed every three days and continued for 12 days, and the solvent of the injection was a PBS solution. Then, these mice were observed and survival rates of these mice were calculated.
FIG. 2 is a diagram showing survival rates (rates of survival) of mice radiated by ^60Co γ-ray with a lethal dosage and subcutaneously injected with different dosages of TA01.

[3] = system: hemopoietic stem/progenitor cells in bone marrow; test: Number of hemopoietic stem/progenitor cells (CFU, CFU-G, CFU-GM, CFU-MK) in bone marrow of sub-lethally radiated mice; format: in vivo, mouse (male C57/BL6); conditions: 6.5 Gy; 2.5 mg/kg every three days; bone marrow on 7th day, 7 days culture; vs control group
Experimental: 6 male C57/BL6 mice were subjected to whole body irradiation by ^60Co γ ray with a dosage rate of 1.56 Gy/min and an irradiation dosage of 6.5 Gy. The radiated mice were divided into 2 groups randomly, a PBS group having 3 mice and a TA01 group having 3 mice. Every mouse in the TA01 group was injected with 2.5 mg/kg TA01 (body weight) every three days, the solvent of the injection was a PBS solution with pH from 7.5 to 8.5. TA01 injection dosage for the PBS group was 0, in other words, only the PBS solution was injected. On the 7th day after the subcutaneous injection, bone marrow blood was collected from each mouse into respective 10 mL tubes pretreated with heparin (commercially available from Tianjing Haoyang Biological Product Technology Limited Liability Company). After the bone marrow blood was mixed with the heparin uniformly, fresh PBS (commercially available from Hyclone Company) was added therein up to 5 mL. After mixing, a uniform mixture of blood and PBS was obtained. Mouse lymphocyte separation medium (commercially available from Tianjing Haoyang Biological Product Technology Limited Liability Company) were subjected to pre-aliquot in centrifuge tubes each having 5 mL of the lymphocyte separation medium (operating in a super clean bench). Then the uniform mixture was gently added on the top of the lymphocyte separation medium, after which a centrifuge was performed at 1500 rpm/min for 20 min. The intermediate layer of cells in a white color was sucked into a new 10 mL centrifuge tube, which was then added with PBS up to 10 mL followed by a mixing and centrifuge at 1500 rpm/min for 5 min. Then obtained upper PBS was removed, and the tube was added with fresh PBS up to 10 ml followed by a mixing and centrifuge at 1500 rpm/min for 5 min. Then the upper PBS was removed, and the tube was added with fresh PBS up to 1 mL followed by a mixing, which was then subjected to a cell number counting. After calculating the number of single nucleus per mL blood, the blood was mixed uniformly with 500 μL semisolid medium (including 0.9% methylcellulose, 15% fetal bovine serum, 100 U/ml penicillin/streptomycin, 1 mM sodium pyruvate, 2 mM glutaminate, 2 mM PFHM II, 200 m/ml transferrin, 1% BSA, 0.45 mM MTG, 30% IMDM, 50 ng/ml SCF, 10 ng/ml TPO, 10 ng/ml IL-3, 10 ng/ml IL-11, 10 ng/ml GM-CSF and 3 U/ml EPO), and cultured in an incubator containing 5% CO2 at 37° C. After 7 days, hematopoietic colony-forming unit (CFU), granulocyte colony-forming unit (CFU-G), granulocyte and macrophage colony-forming unit (CFU-GM) and megakaryocyte colony-forming unit (CFU-MK) were counted respectively, and the results were shown in FIG. 4. […]

[4] = system: mice radiated by 60Co γ-ray with a lethal dosage; test: HE staining of intestinal, hepatic and pulmonary tissues of mice radiated by 60Co γ-ray with a lethal dosage (8.0 Gy); format: in vivo, mouse (male C57/BL6); conditions: 2.5 mg/kg every three days, vs PBS group
Experimental: 6 male C57/BL6 mice were subjected to whole body irradiation by ^60Co γ ray with a dosage rate of 1.56 Gy/min and an irradiation dosage of 8.0 Gy. The radiated mice were divided into 2 groups randomly, a PBS group (control) having 3 mice and a TA01 group having 3 mice. Every mouse in the TA01 group was injected with 2.5 mg/kg TA01 (body weight) every three days, the solvent of the injection was a PBS solution with pH of 7.4. TA01 injection dosage for the PBS group was 0, in other words, only the PBS solution was injected. The mice both two groups were sacrificed by dislocation on the 10th day and the 14th day after the irradiation, respectively. The intestinal, hepatic and pulmonary tissues were collected, fixed with 4% paraformaldehyde and formed into paraffin sections. The paraffin sections were subjected to HE staining, so as to obserse repairing conditions of the intestinal, hepatic and pulmonary tissues, and the results were shown in FIGS. 5 and 6.
FIG. 5 is diagrams showing results of hematoxylin-eosin staining with intestinal tissues of mice radiated by ^60Co γ-ray with a lethal dosage and treated with TA01 or PBS.
FIG. 6 is diagrams showing results of hematoxylin-eosin staining with hepatic and pulmonary tissue of mice radiated by ^60Co γ-ray with a lethal dosage and treated with TA01 or PBS.

Q: What does the source list for `CN(C)CCN(CCN(C)C)CCN(C)C` [TA01, tris(2-(dimethylamino)ethyl)amine]?
A: content of WBC in peripheral blood ([1]; on the 4th, 7th and 21st day): significantly increased; content of PLT in peripheral blood ([1]; on the 4th, 14th, 21st and 28th day): significantly increased; content of RBC in peripheral blood ([1]; on the 21st day): most obviously increased; survival rate ([2]; TA01 1.25 mg/kg every three days for 5 times): significantly increased; survival rate ([2]; TA01 2.5 mg/kg every three days for 5 times, 2.5 mg/kg): significantly increased; also recorded: best survival rate; survival rate ([2]; TA01 5 mg/kg every three days for 5 times): significantly increased; survival rate ([2]; TA01 10 mg/kg every three days for 5 times): significantly increased; number of CFU-G in bone marrow [3]: increased obviously; number of CFU-GM in bone marrow [3]: increased obviously; number of CFU-MK in bone marrow [3]: increased obviously; number of total colony-forming units (CFU) in bone marrow [3]: increased significantly; repair of intestinal tissue (HE staining) ([4]; 10th and 14th day): improve repairs; repair of hepatic tissue (HE staining) [4]: improve repairs; repair of pulmonary tissue (HE staining) [4]: improve repairs
